Assay results from US12577231B2, “Androgen receptor PROTACS” (GlaxoSmithKline Intellectual Property Development Limited, priority 2023, dated 2026).

molecular target: T1, Androgen Receptor dual T878A/L702H mutant protein (Homo sapiens, UniProt P10275, L702H/T878A); assay: Dual Mutant (T878A/L702H) Androgen Receptor Degradation Assay (HTRF, MDA-PCa-2b cells); assay type: cell-based; details: 18 h, 18 h incubation, read-out: mean asymptote max
T1 construct: host or cells: MDA-PCa-2b
T1 sequence (P10275 1-920 L702H/T878A): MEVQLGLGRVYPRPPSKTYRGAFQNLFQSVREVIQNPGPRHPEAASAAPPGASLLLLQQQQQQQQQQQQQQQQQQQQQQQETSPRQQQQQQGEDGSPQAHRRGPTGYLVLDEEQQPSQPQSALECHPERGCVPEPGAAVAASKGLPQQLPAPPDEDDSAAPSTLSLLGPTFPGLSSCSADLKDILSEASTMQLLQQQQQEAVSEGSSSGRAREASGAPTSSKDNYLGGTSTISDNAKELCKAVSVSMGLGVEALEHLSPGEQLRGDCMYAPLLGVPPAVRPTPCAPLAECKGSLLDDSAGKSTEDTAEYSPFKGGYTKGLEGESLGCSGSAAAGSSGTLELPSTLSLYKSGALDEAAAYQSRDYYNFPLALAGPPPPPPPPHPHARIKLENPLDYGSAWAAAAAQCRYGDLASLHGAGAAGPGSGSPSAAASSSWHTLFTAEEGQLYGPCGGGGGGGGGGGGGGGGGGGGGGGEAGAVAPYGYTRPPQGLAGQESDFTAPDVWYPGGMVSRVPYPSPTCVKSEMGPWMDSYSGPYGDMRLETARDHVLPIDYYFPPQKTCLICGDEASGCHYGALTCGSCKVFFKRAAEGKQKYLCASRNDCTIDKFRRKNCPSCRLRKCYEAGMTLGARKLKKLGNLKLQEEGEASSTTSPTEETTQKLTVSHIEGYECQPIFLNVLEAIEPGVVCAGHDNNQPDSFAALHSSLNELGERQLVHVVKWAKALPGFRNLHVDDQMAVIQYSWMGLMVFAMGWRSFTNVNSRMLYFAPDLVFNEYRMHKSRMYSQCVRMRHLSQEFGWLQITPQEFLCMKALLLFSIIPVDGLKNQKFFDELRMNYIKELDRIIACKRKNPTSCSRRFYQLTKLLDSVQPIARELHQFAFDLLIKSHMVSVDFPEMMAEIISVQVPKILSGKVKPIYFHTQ
Experimental: Degradation of Androgen Receptor dual T878A/L702H mutant protein in human MDA-PCa-2b (ATCC) cells treated with PROTACs was quantified using the HTRF Human Androgen Receptor Detection Kit (PerkinElmer) in 384 well assay plate format. 10 mM DMSO (Sigma-Aldrich) stock solutions of PROTACs were prepared and diluted across an 11 concentration, 3-fold increment range, and 25 nL dispensed into a white opaque bottomed 384 well assay plate (Thermofisher) using an acoustic ECHO dispenser (Labcyte). Cells were cultured in growth medium (BRFF—HPC-1 (Athena ES) supplemented with 20% FBS (Gibco), penicillin 50U/mL and streptomycin 50 μg/mL (Gibco, #15140-122)) in collagen I or poly-D-lysine coated T175 flasks (Corning, #356487 or #356539, respectively). For the assay, cells were harvested from the flask, centrifuged at 200 g for 5 min and then resuspended in the growth medium. 25 μl of cell suspension containing 10,000 cells was dispensed into each well of the assay plate containing the test compounds, which was then incubated for 18 h at 37° C./5% CO2. Control wells were included on each assay plate, with assay medium without cells being the no AR remaining 100% effect control, and cells treated with DMSO vehicle only, without PROTAC, the 0% effect control. After 18 h incubation 8 μl of supplemented lysis buffer from HTRF kit was added to each well and the plate shaken at 500 rpm for 1 h at room temperature. 8 μl of antibody mix in Detection buffer from HTRF kit was added to each well and the plate was incubated for 2 h in dark at mom temperature. The fluorescence was measured at both 620 nm and 665 nm using an excitation wavelength of 337 nm with a PHERAstar microplate reader (BMG Labtech) and the % AR protein remaining in each well was calculated by normalising the HTRF ratio (665 nm signal/620 nm signal) value to the control wells mentioned above. Parameters corresponding to the potency and efficacy estimates of the PROTACs were obtained from these normalised values using curve fitting software (IDBS ActivityBase). These included the DC50 and the Dmax estimates. Two versions of the DC50, called relative DC50 and absolute DC50, were typically generated. These are the inflection point of a fitted 4 parameter sigmoidal response curve and the interpolated concentration of PROTAC corresponding to 50% of the protein being degraded, respectively. The Dmax parameter was the maximum experimentally observed degradation and the asymptote max parameter the fitted response curve asymptote maximum.

SMILES	Dmax [%]
CC1(C)[C@H](NC(=O)c2ccc(N3CCC(CN4CCC(n5ncc6c(N7CCC(=O)NC7=O)cc(F)cc65)CC4)CC3)c(F)c2)C(C)(C)[C@H]1Oc1ccc(C#N)c2ncccc12 [Example 38, N-((1r,3r)-3-((8-Cyanoquinolin-5-yl)oxy)-2,2,4,4-tetramethylcyclobutyl)-4-(4-((4-(4-(2,4-dioxotetrahydropyrimidin-1(2H)-yl)-6-fluoro-1H-indazol-1-yl)piperidin-1-yl)methyl)piperidin-1-yl)-3-fluorobenzamide]	≥ 50
COc1c(C#N)ccc(O[C@H]2C(C)(C)[C@H](NC(=O)c3ccc(N4CCC(CN5CCC(n6ncc7c(N8CCC(=O)NC8=O)cccc76)CC5)CC4)c(F)c3)C2(C)C)c1C [Example 5, N-((1r,3r)-3-(4-Cyano-3-methoxy-2-methylphenoxy)-2,2,4,4-tetramethylcyclobutyl)-4-(4-((4-(4-(2,4-dioxotetrahydropyrimidin-1(2H)-yl)-1H-indazol-1-yl)piperidin-1-yl)methyl)piperidin-1-yl)-3-fluorobenzamide]	≥ 50
CC1(C)[C@H](NC(=O)c2ccc(N3CCC(CN4CCC(n5ncc6c(N7CCC(=O)NC7=O)cccc65)CC4)CC3)c(F)c2)C(C)(C)[C@H]1Oc1ccc(C#N)c2ncccc12 [Example 6, N-((1r,3r)-3-((8-Cyanoquinolin-5-yl)oxy)-2,2,4,4-tetramethylcyclobutyl)-4-(4-((4-(4-(2,4-dioxotetrahydropyrimidin-1(2H)-yl)-1H-indazol-1-yl)piperidin-1-yl)methyl)piperidin-1-yl)-3-fluorobenzamide]	≥ 50
COc1cc(O[C@H]2C(C)(C)[C@H](NC(=O)c3ccc(N4CCC(CN5CCC(n6ccc7c(N8CCC(=O)NC8=O)cccc76)CC5)CC4)cc3)C2(C)C)ccc1C#N [Example 16, N-((1r,3r)-3-(4-Cyano-3-methoxyphenoxy)-2,2,4,4-tetramethylcyclobutyl)-4-(4-((4-(4-(2,4-dioxotetrahydropyrimidin-1(2H)-yl)-1H-indol-1-yl)piperidin-1-yl)methyl)piperidin-1-yl)benzamide]	≥ 50
COc1cc(O[C@H]2C(C)(C)[C@H](NC(=O)c3ccc(N4CCC(CN5CCC(n6ncc7c(N8CCC(=O)NC8=O)cccc76)CC5)CC4)cc3)C2(C)C)ccc1C#N [Example 15, N-((1r,3r)-3-(4-Cyano-3-methoxyphenoxy)-2,2,4,4-tetramethylcyclobutyl)-4-(4-((4-(4-(2,4-dioxotetrahydropyrimidin-1(2H)-yl)-1H-indazol-1-yl)piperidin-1-yl)methyl)piperidin-1-yl)benzamide]	≥ 50
CC1(C)[C@H](NC(=O)c2ccc(N3CCC(CN4CC[C@H](n5ncc6c(N7CCC(=O)NC7=O)cccc65)C4)CC3)c(F)c2)C(C)(C)[C@H]1Oc1ccc(C#N)c2ncccc12 [Example 37, N-((1r,3r)-3-((8-Cyanoquinolin-5-yl)oxy)-2,2,4,4-tetramethylcyclobutyl)-4-(4-(((S)-3-(4-(2,4-dioxotetrahydropyrimidin-1(2H)-yl)-1H-indazol-1-yl)pyrrolidin-1-yl)methyl)piperidin-1-yl)-3-fluorobenzamide]	≥ 50
CC1(C)[C@H](NC(=O)c2ccc(N3CCC(CN4CCC(n5ncc6c(N7CCC(=O)NC7=O)c(F)ccc65)CC4)CC3)c(F)c2)C(C)(C)[C@H]1Oc1ccc(C#N)c(Cl)c1 [Example 13, N-((1r,3r)-3-(3-Chloro-4-cyanophenoxy)-2,2,4,4-tetramethylcyclobutyl)-4-(4-((4-(4-(2,4-dioxotetrahydropyrimidin-1(2H)-yl)-5-fluoro-1H-indazol-1-yl)piperidin-1-yl)methyl)piperidin-1-yl)-3-fluorobenzamide]	≥ 50
CC1(C)[C@H](NC(=O)c2ccc(N3CCC(CN4CCC(n5ncc6c(N7CCC(=O)NC7=O)nccc65)CC4)CC3)c(F)c2)C(C)(C)[C@H]1Oc1ccc(C#N)c2ncccc12 [Example 39, N-((1r,3r)-3-((8-Cyanoquinolin-5-yl)oxy)-2,2,4,4-tetramethylcyclobutyl)-4-(4-((4-(4-(2,4-dioxotetrahydropyrimidin-1(2H)-yl)-1H-pyrazolo[4,3-c]pyridin-1-yl)piperidin-1-yl)methyl)piperidin-1-yl)-3-fluorobenzamide]	≥ 50
CC1(C)[C@H](NC(=O)c2ccc(N3CCC(CN4CCC(n5ncc6c(N7CCC(=O)NC7=O)cccc65)CC4)CC3)c(F)c2)C(C)(C)[C@H]1Oc1cnc(C#N)c(Cl)c1 [Example 3, N-((1r,3r)-3-((5-Chloro-6-cyanopyridin-3-yl)oxy)-2,2,4,4-tetramethylcyclobutyl)-4-(4-((4-(4-(2,4-dioxotetrahydropyrimidin-1(2H)-yl)-1H-indazol-1-yl)piperidin-1-yl)methyl)piperidin-1-yl)-3-fluorobenzamide]	≥ 50
COc1cc(O[C@H]2C(C)(C)[C@H](NC(=O)c3ccc(N4CCC(CN5CC[C@@H](n6ncc7c(N8CCC(=O)NC8=O)cccc76)[C@@H](F)C5)CC4)c(F)c3)C2(C)C)ccc1C#N [Example 27, N-((1r,3r)-3-(4-Cyano-3-methoxyphenoxy)-2,2,4,4-tetramethylcyclobutyl)-4-(4-(((3,4R)-4-(4-(2,4-dioxotetrahydropyrimidin-1(2H)-yl)-1H-indazol-1-yl)-3-fluoropiperidin-1-yl)methyl)piperidin-1-yl)-3-fluorobenzamide]	≥ 50
CC1(C)[C@H](NC(=O)c2ccc(N3CC[C@@H](CN4CCC(n5ncc6c(N7CCC(=O)NC7=O)cccc65)CC4)C3)c(F)c2)C(C)(C)[C@H]1Oc1ccc(C#N)c2ncccc12 [Example 33, N-((1r,3S)-3-((8-Cyanoquinolin-5-yl)oxy)-2,2,4,4-tetramethylcyclobutyl)-4-((S)-3-((4-(4-(2,4-dioxotetrahydropyrimidin-1(2H)-yl)-1H-indazol-1-yl)piperidin-1-yl)methyl)pyrrolidin-1-yl)-3-fluorobenzamide]	≥ 50
CC1(C)[C@H](NC(=O)c2ccc(N3CCC(CN4CC[C@@H](n5ncc6c(N7CCC(=O)NC7=O)cccc65)C4)CC3)c(F)c2)C(C)(C)[C@H]1Oc1ccc(C#N)c2ncccc12 [Example 36, N-((1r,3r)-3-((8-Cyanoquinolin-5-yl)oxy)-2,2,4,4-tetramethylcyclobutyl)-4-(4-(((R)-3-(4-(2,4-dioxotetrahydropyrimidin-1(2H)-yl)-1H-indazol-1-yl)pyrrolidin-1-yl)methyl)piperidin-1-yl)-3-fluorobenzamide]	41
CC1(C)[C@H](NC(=O)c2ccc(N3CCC(CN4CCC(n5ccc6c(N7CCC(=O)NC7=O)ncnc65)CC4)CC3)c(F)c2)C(C)(C)[C@H]1Oc1ccc(C#N)c2ncccc12 [Example 47, N-((1r,3r)-3-((8-Cyanoquinolin-5-yl)oxy)-2,2,4,4-tetramethylcyclobutyl)-4-(4-((4-(4-(2,4-dioxotetrahydropyrimidin-1(2H)-yl)-7H-pyrrolo[2,3-d]pyrimidin-7-yl)piperidin-1-yl)methyl)piperidin-1-yl)-3-fluorobenzamide]	≥ 50
